Laboratory results published in patent US20070128217A1 (priority 2003, published 2007).

What was measured:
[1] = test system: control sera (pooled serum of ten healthy LUMC hospital workers; commercial negative donor pooled serum from the Dutch bloodbank); format: binding, human; parameters: Binding of Control serum LUMC to linear peptides / Binding of Control serum Blood-bank to linear peptides / Binding of Control serum LUMC to looped peptides / Binding of Control Serum Blood-Bank to Looped peptides / Binding of Control serum LUMC to linear peptides of the protein M of SARS-CoV Urbani / Binding of Control serum Blood-bank to linear peptides of the protein M of SARS-CoV Urbani / Binding of Control serum LUMC to looped peptides of the protein M of SARS-CoV Urbani / Binding of Control Serum Blood-Bank to Looped peptides of the protein M of SARS-CoV Urbani: unit not given here
[2] = test system: recombinant human anti-SARS-CoV antibody 03-018; format: binding; parameters: Binding of antibody 03-018 to linear peptides of the N protein of SARS-CoV Urbani / Binding of antibody 03-018 to looped/cyclic peptides of the N protein of SARS-CoV Urbani: unit not given here
[3] = test system: antibodies in sera from SARS patients (sera 1a, 1b, 2, 6, 37, 62, London, SARS-yellow, SARS-green); format: binding, human; parameters: Binding of serum 6 to linear peptides of protein X1 of SARS-CoV Urbani / Binding of serum 37 to linear peptides of protein X1 of SARS-CoV Urbani / Binding of serum 6 to looped/cyclic peptide (PEPSCAN-ELISA) / Binding of serum 37 to looped/cyclic peptide (PEPSCAN-ELISA) / Binding of serum 37 to looped/cyclic peptides of protein X1 of SARS-CoV Urbani / Binding of serum 6 to linear peptides of protein X2 / Binding of serum 37 to linear peptides of protein X2 / Binding of serum 37 to looped/cyclic peptides of protein X2 of SARS-CoV Urbani / Binding of serum 6 to linear peptides of protein M of SARS-CoV Urbani / Binding of serum 37 to linear peptides of protein M of SARS-CoV Urbani / Binding of serum 6 to looped/cyclic peptides of protein M of SARS-CoV Urbani / Binding of serum 37 to looped/cyclic peptides of protein M of SARS-CoV Urbani / Binding of serum 6 to linear peptides of protein X3 of SARS-CoV Urbani / Binding of serum 37 to linear peptides of protein X3 of SARS-CoV Urbani / Binding of serum 37 to looped/cyclic peptides of protein X3 of SARS-CoV Urbani / Binding of serum 6 to linear peptides of protein X4 of SARS-CoV Urbani / Binding of serum 37 to linear peptides of protein X4 of SARS-CoV Urbani / Binding of serum 37 to looped/cyclic peptides of protein X4 of SARS-CoV Urbani / Binding of serum 6 to linear peptides of protein X5 of SARS-CoV Urbani / Binding of serum 37 to linear peptides of protein X5 of SARS-CoV Urbani / Binding of serum 37 to looped/cyclic peptides of protein X5 of SARS-CoV Urbani / Binding of serum 6 to linear peptides of protein N of SARS-CoV Urbani / Binding of serum 37 to linear peptides of protein N of SARS-CoV Urbani / Binding of serum 6 to linear peptide (PEPSCAN-ELISA) / Binding of serum 1a to looped/cyclic peptides of protein N of SARS-CoV Urbani / Binding of serum 1b to looped/cyclic peptides of protein N of SARS-CoV Urbani / Binding of serum 2 to looped/cyclic peptides of protein N of SARS-CoV Urbani / Binding of serum 6 to looped/cyclic peptides of protein N of SARS-CoV Urbani / Binding of serum 37 to looped/cyclic peptides of protein N of SARS-CoV Urbani / Binding of serum 62 to looped/cyclic peptides of protein N of SARS-CoV Urbani / Binding of serum London to looped/cyclic peptides of protein N of SARS-CoV Urbani / Binding of serum SARS-green to looped/cyclic peptides of protein N of SARS-CoV Urbani: unit not given here
[4] = test system: rabbit serum obtained by immunizing a rabbit with the SARS-CoV strain Frankfurt 1; format: binding; parameters: Binding of a rabbit serum to linear peptides / Binding of a rabbit serum to looped peptides / Rabbit serum linear peptides / Rabbit serum looped peptides / Binding of a rabbit serum to linear peptides of protein N of SARS-CoV Urbani (Rabbit serum linear peptides) / Binding of a rabbit serum to looped/cyclic peptides of protein N of SARS-CoV Urbani (Rabbit serum looped peptides): unit not given here

Sequence | Binding of Control Serum Blood-Bank to Looped peptides [1] | Binding of Control serum Blood-bank to linear peptides [1] | Binding of Control serum LUMC to linear peptides [1] | Binding of Control serum LUMC to looped peptides [1] | Binding of antibody 03-018 to linear peptides of the N protein of SARS-CoV Urbani [2] | Binding of antibody 03-018 to looped/cyclic peptides of the N protein of SARS-CoV Urbani [2] | Binding of serum 1a to looped/cyclic peptides of protein N of SARS-CoV Urbani [3] | Binding of serum 1b to looped/cyclic peptides of protein N of SARS-CoV Urbani [3] | Binding of serum 2 to looped/cyclic peptides of protein N of SARS-CoV Urbani [3] | Binding of serum 6 to looped/cyclic peptides of protein N of SARS-CoV Urbani [3] | Binding of serum 37 to looped/cyclic peptides of protein N of SARS-CoV Urbani [3] | Binding of serum 62 to looped/cyclic peptides of protein N of SARS-CoV Urbani [3] | Binding of serum London to looped/cyclic peptides of protein N of SARS-CoV Urbani [3] | Binding of serum SARS-green to looped/cyclic peptides of protein N of SARS-CoV Urbani [3] | Binding of serum SARS-yellow to looped/cyclic peptides of protein N of SARS-CoV Urbani [3] | also measured
NVTQAFGRRGPEQTQ | 0.5 | 0.7 | 0.7 | 0.5 | 0.1 | 0.2 | 0.3 | 0.2 | 0.3 | 0.2 | 0.5 | 0.4 | 0.4 | 0.3 | 0.3 | Binding of serum 1a to linear peptide (PEPSCAN-ELISA) [3]: 0.2; Binding of serum 1b to linear peptide (PEPSCAN-ELISA) [3]: 0.1; Binding of serum 2 to linear peptide (PEPSCAN-ELISA) [3]: 0.2; Binding of serum 6 to linear peptide (PEPSCAN-ELISA) [3]: 0.2; Binding of serum 37 to linear peptide (PEPSCAN-ELISA) [3]: 0.6; Binding of serum 62 to linear peptide (PEPSCAN-ELISA) [3]: 0.7; Binding of serum London to linear peptide (PEPSCAN-ELISA) [3]: 0.5; Binding of serum SARS-green to linear peptide (PEPSCAN-ELISA) [3]: 0.5; Binding of serum SARS-yellow to linear peptide (PEPSCAN-ELISA) [3]: 0.6; Recognition of the peptide by the rabbit serum [4]: recognized
GQGVPINTNSGPDDQ | 0.5 | 0.5 | 0.5 | 0.3 | 0.1 | 0.2 | 0.2 | 0.1 | 0.3 | 0.1 | 0.4 | 0.1 | 0.3 | 0.1 | 0.1 | Binding of serum 1a to linear peptides of protein N of SARS-CoV Urbani [3]: 0.3; Binding of serum 1b to linear peptides of protein N of SARS-CoV Urbani [3]: 0.1; Binding of serum 2 to linear peptides of protein N of SARS-CoV Urbani [3]: 0.2; Binding of serum 6 to linear peptides of protein N of SARS-CoV Urbani [3]: 0.2; Binding of serum 37 to linear peptides of protein N of SARS-CoV Urbani [3]: 0.8; Binding of serum 62 to linear peptides of protein N of SARS-CoV Urbani [3]: 0.6; Binding of serum London to linear peptides of protein N of SARS-CoV Urbani [3]: 0.6; Binding of serum SARS-green to linear peptides of protein N of SARS-CoV Urbani [3]: 0.5; Binding of serum SARS-yellow to linear peptides of protein N of SARS-CoV Urbani [3]: 0.6; Binding of a rabbit serum to linear peptides of protein N of SARS-CoV Urbani (Rabbit serum linear peptides) [4]: 0.1; Binding of a rabbit serum to looped/cyclic peptides of protein N of SARS-CoV Urbani (Rabbit serum looped peptides) [4]: 0.0
